Measurements: PMC10061512 (ACS Omega, 2023)

Key:
[1] = target: EeAChE (Electrophorus electricus, UniProt O42275); assay: AChE inhibition and enzyme kinetics, Ellman assay; assay type: biochemical, electric eel; conditions: IC50 (μM) ± SD EeAChE, Ellman assay
[2] = target: eqBChE (Equus caballus, UniProt P81908); assay: BChE inhibition and enzyme kinetics, Ellman assay; assay type: biochemical, equine
[3] = target: hBACE-1 (Homo sapiens, UniProt P56817); assay: biochemical
Sequence of hBACE-1 (P56817 46-501): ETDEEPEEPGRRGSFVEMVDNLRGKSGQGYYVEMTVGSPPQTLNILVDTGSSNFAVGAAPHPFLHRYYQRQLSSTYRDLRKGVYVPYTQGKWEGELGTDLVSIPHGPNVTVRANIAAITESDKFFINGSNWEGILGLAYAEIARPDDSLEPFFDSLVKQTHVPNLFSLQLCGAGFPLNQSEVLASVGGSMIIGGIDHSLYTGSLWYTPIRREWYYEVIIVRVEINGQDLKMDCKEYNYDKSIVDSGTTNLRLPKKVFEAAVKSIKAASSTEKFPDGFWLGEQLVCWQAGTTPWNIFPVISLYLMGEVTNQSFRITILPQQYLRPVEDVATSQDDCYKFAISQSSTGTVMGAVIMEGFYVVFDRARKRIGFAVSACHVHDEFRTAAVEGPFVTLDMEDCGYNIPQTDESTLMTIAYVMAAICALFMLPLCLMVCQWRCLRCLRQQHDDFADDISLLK

Sequence of eqBChE (P81908 whole entry): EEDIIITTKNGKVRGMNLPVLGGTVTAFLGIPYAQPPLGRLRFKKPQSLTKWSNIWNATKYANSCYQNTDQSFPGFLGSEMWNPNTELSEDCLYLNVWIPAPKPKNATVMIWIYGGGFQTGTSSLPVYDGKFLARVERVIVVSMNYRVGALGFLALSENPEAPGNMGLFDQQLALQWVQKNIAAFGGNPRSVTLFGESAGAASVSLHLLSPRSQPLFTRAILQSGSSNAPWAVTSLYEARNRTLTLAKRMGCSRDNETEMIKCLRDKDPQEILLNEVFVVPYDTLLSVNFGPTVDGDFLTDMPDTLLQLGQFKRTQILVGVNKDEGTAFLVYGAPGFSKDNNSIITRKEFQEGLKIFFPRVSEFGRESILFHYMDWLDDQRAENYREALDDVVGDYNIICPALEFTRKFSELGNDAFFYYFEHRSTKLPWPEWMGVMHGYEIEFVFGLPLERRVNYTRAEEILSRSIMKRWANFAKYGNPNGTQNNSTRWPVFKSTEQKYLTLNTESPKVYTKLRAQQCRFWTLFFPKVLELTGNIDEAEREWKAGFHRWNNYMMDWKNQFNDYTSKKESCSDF
Sequence of EeAChE (O42275 24-633): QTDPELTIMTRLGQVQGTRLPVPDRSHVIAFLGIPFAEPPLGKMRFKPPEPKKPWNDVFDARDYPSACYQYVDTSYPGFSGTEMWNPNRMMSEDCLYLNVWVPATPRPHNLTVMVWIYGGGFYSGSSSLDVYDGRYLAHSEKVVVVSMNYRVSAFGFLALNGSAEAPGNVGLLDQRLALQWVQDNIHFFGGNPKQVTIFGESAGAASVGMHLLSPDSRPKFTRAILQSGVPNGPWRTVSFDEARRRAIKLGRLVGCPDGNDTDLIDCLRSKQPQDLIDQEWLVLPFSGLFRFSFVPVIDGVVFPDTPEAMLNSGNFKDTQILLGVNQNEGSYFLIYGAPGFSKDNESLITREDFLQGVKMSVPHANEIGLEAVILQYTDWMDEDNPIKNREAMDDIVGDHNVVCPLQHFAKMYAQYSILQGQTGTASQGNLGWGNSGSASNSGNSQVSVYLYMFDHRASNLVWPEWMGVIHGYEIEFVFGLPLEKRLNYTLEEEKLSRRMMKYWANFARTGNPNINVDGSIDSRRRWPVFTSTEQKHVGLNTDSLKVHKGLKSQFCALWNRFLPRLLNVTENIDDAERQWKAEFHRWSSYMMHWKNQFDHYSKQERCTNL

SMILES	IC50 [1] [µM]	IC50 [2] [µM]	IC50 [3] [µM]
O=c1cc(OCc2cn(Cc3ccccc3)nn2)c2ccccc2o1 [8a, 4-((1-Benzyl-1H-1,2,3-triazol-4-yl)methoxy)-2H-chromen-2-one]	151 ± 3.14	212 ± 2.55	72.9 ± 2.4
O=c1cc(OCc2cn(Cc3ccccc3Cl)nn2)c2ccccc2o1 [8b, 4-((1-(2-Chlorobenzyl)-1H-1,2,3-triazol-4-yl)methoxy)-2H-chromen-2-one]	68.7 ± 0.71	42.2 ± 0.78	186.6 ± 1.21
O=c1cc(OCc2cn(Cc3cccc(Cl)c3)nn2)c2ccccc2o1 [8c, 4-((1-(3-Chlorobenzyl)-1H-1,2,3-triazol-4-yl)methoxy)-2H-chromen-2-one]	62.6 ± 2.4	61.9 ± 3.66	24.8 ± 1.49
O=c1cc(OCc2cn(Cc3c(Cl)cccc3Cl)nn2)c2ccccc2o1 [8d, 4-((1-(2,6-Dichlorobenzyl)-1H-1,2,3-triazol-4-yl)methoxy)-2H-chromen-2-one]	59.4 ± 2.71	40.3 ± 0.93	106 ± 1.38
O=c1cc(OCc2cn(Cc3ccccc3F)nn2)c2ccccc2o1 [8e, 4-((1-(2-Fluorobenzyl)-1H-1,2,3-triazol-4-yl)methoxy)-2H-chromen-2-one]	89.2 ± 1.88	62.3 ± 1.2	111.2 ± 0.63
O=c1cc(OCc2cn(Cc3cccc(F)c3)nn2)c2ccccc2o1 [8f, 4-((1-(3-Fluorobenzyl)-1H-1,2,3-triazol-4-yl)methoxy)-2H-chromen-2-one]	232.8 ± 2.31	236 ± 3.6	22.3 ± 1.54
O=c1cc(OCc2cn(Cc3ccc(F)cc3)nn2)c2ccccc2o1 [8g, 4-((1-(4-Fluorobenzyl)-1H-1,2,3-triazol-4-yl)methoxy)-2H-chromen-2-one]	194 ± 2.19	249 ± 3.1	24.2 ± 1.98
O=c1cc(OCc2cn(Cc3c(F)cccc3F)nn2)c2ccccc2o1 [8h, 4-((1-(2,6-Difluorobenzyl)-1H-1,2,3-triazol-4-yl)methoxy)-2H-chromen-2-one]	73.89 ± 0.63	66.7 ± 1.37	135 ± 1.9
O=c1cc(OCc2cn(Cc3ccccc3C(F)(F)F)nn2)c2ccccc2o1 [8i, 4-((1-(2-(Trifluoromethyl)benzyl)-1H-1,2,3-triazol-4-yl)methoxy)-2H-chromen-2-one]	4.83 ± 0.11	7.04 ± 0.77	10.2 ± 0.79
O=c1cc(OCc2cn(Cc3ccc(C(F)(F)F)cc3)nn2)c2ccccc2o1 [8j, 4-((1-(4-(Trifluoromethyl)benzyl)-1H-1,2,3-triazol-4-yl)methoxy)-2H-chromen-2-one]	23.3 ± 2.86	209 ± 2.11	19.5 ± 0.66
O=c1cc(OCc2cn(Cc3ccccc3OC(F)(F)F)nn2)c2ccccc2o1 [8k, 4-((1-(2-(Trifluoromethoxy)benzyl)-1H-1,2,3-triazol-4-yl)methoxy)-2H-chromen-2-one]	9.13 ± 0.73	9.95 ± 0.89	18 ± 1.59
O=c1cc(OCc2cn(Cc3ccc(OC(F)(F)F)cc3)nn2)c2ccccc2o1 [8l, 4-((1-(4-(Trifluoromethoxy)benzyl)-1H-1,2,3-triazol-4-yl)methoxy)-2H-chromen-2-one]	45.4 ± 1.4	158 ± 1.98	132.9 ± 1.08
Cc1ccccc1Cn1cc(COc2cc(=O)oc3ccccc23)nn1 [8m, 4-((1-(2-Methylbenzyl)-1H-1,2,3-triazol-4-yl)methoxy)-2H-chromen-2-one]	210.7 ± 1.83	172 ± 1.98	162 ± 1.85
COc1cccc(Cn2cc(COc3cc(=O)oc4ccccc34)nn2)c1 [8n, 4-((1-(3-Methoxybenzyl)-1H-1,2,3-triazol-4-yl)methoxy)-2H-chromen-2-one]	11.4 ± 1.16	140 ± 6.25	126 ± 4.18
COc1cc(Cn2cc(COc3cc(=O)oc4ccccc34)nn2)cc(OC)c1 [8o, 4-((1-(3,5-Dimethoxybenzyl)-1H-1,2,3-triazol-4-yl)methoxy)-2H-chromen-2-one]	2.76 ± 0.04	3.3 ± 0.01	9.79 ± 1.36
O=c1cc(OCc2cn(Cc3ccc([N+](=O)[O-])cc3)nn2)c2ccccc2o1 [8p, 4-((1-(4-Nitrobenzyl)-1H-1,2,3-triazol-4-yl)methoxy)-2H-chromen-2-one]	200.4 ± 0.85	220 ± 3.04	156 ± 1.09
COc1cccc(Cn2cc(COc3ccc4ccc(=O)oc4c3C(C)=O)nn2)c1 [10a, 8-Acetyl-7-((1-(3-methoxybenzyl)-1H-1,2,3-triazol-4-yl)methoxy)-2H-chromen-2-one]	8.36 ± 1.29	7.4 ± 0.94	119 ± 2.49
CC(=O)c1c(OCc2cn(Cc3ccccc3C(F)(F)F)nn2)ccc2ccc(=O)oc12 [10c, 8-Acetyl-7-((1-(2-(trifluoromethyl)benzyl)-1H-1,2,3-triazol-4-yl)methoxy)-2H-chromen-2-one]	173 ± 1.89	44.6 ± 1.84	139 ± 1.47
CC(=O)c1c(OCc2cn(Cc3ccccc3OC(F)(F)F)nn2)ccc2ccc(=O)oc12 [10d, 8-Acetyl-7-((1-(2-(trifluoromethoxy)benzyl)-1H-1,2,3-triazol-4-yl)methoxy)-2H-chromen-2-one]	139 ± 1.64	170 ± 1.76	142 ± 1.59
COc1cccc(Cn2cc(COc3cc4oc(=O)cc(C)c4cc3OCc3cn(Cc4cccc(OC)c4)nn3)nn2)c1 [13a, 6,7-Bis((1-(3-methoxybenzyl)-1H-1,2,3-triazol-4-yl)methoxy)-4-methyl-2H-chromen-2-one]	130.7 ± 0.45	51.7 ± 1.42	129 ± 1.49
COc1cc(Cn2cc(COc3cc4oc(=O)cc(C)c4cc3OCc3cn(Cc4cc(OC)cc(OC)c4)nn3)nn2)cc(OC)c1 [13b, 6,7-Bis((1-(3,5-dimethoxybenzyl)-1H-1,2,3-triazol-4-yl)methoxy)-4-methyl-2H-chromen-2-one]	168 ± 6.7	4.7 ± 0.67	115 ± 3.86
Cc1cc(=O)oc2cc(OCc3cn(Cc4ccccc4C(F)(F)F)nn3)c(OCc3cn(Cc4ccccc4C(F)(F)F)nn3)cc12 [13c, 4-Methyl-6,7-bis((1-(2-(trifluoromethyl)benzyl)-1H-1,2,3-triazol-4-yl)methoxy)-2H-chromen-2-one]	154.7 ± 1.42	82.5 ± 1.41	139.4 ± 1
Cc1cc(=O)oc2cc(OCc3cn(Cc4ccccc4OC(F)(F)F)nn3)c(OCc3cn(Cc4ccccc4OC(F)(F)F)nn3)cc12 [13d, 4-Methyl-6,7-bis((1-(2-(trifluoromethoxy)benzyl)-1H-1,2,3-triazol-4-yl)methoxy)-2H-chromen-2-one]	176 ± 10.2	–	20.7 ± 0.93
COc1cccc(Cn2cc(COc3cc4oc(=O)cc(C)c4cc3OC)nn2)c1 [16a, 6-Methoxy-7-((1-(3-methoxybenzyl)-1H-1,2,3-triazol-4-yl)methoxy)-4-methyl-2H-chromen-2-one]	164 ± 1.84	95.8 ± 1.12	138.4 ± 1.02
COc1cc(Cn2cc(COc3cc4oc(=O)cc(C)c4cc3OC)nn2)cc(OC)c1 [16b, 7-((1-(3,5-Dimethoxybenzyl)-1H-1,2,3-triazol-4-yl)methoxy)-6-methoxy-4-methyl-2H-chromen-2-one]	151 ± 5.05	191.2 ± 1.13	9.06 ± 0.88
O=c1ccc2ccc(O)cc2o1 [compound 17, 7-hydroxycoumarin]	–	–	175 ± 4.37
C[n+]1c2ccccc2cc2[n-]c3ccccc3c21 [cryptolepine, reference compound]	0.33 ± 0.2	0.61 ± 0.3	–
